Article PMC10584170, “Machine learning-based phenotypic imaging to characterise the targetable biology of Plasmodium falciparum male gametocytes for the development of transmission-blocking antimalarials” (PLOS Pathogens, 2023)

Legend:
[1] = test system: P. falciparum male gametocytes; assay: P. falciparum Dual Gamete Formation Assay (PfDGFA), male readout (exflagellation); format: cell-based, Plasmodium falciparum NF54; conditions: for % inhibition male (individual replicates) R1: replicate R1; for % inhibition male (individual replicates) R4: replicate R4; for Average inhibition male (%): average of replicates; for % inhibition male (individual replicates) R3: replicate R3; for Activity: hit = >50% inhibition in male or female readout in at least 3 replicates, 0 = no class assigned
Procedure, shortened: (§1)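 Male and female gamete formation were quantified by microscopy image analysis following 24 h incubation of mature NF54 gametocytes with compound and activation at 28°C with xanthurenic acid.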

[2] = test system: P. falciparum female gametocytes; assay: P. falciparum Dual Gamete Formation Assay (PfDGFA), female readout (Pfs25-positive female gametes); format: cell-based, Plasmodium falciparum NF54; conditions: for % inhibition female (individual replicates) R1: replicate R1; for % inhibition female (individual replicates) R3: replicate R3; for % inhibition female (individual replicates) R4: replicate R4; for Average inhibition female (%): average of replicates
Procedure, shortened: as §1

[3] = PfDGFA at 2µM, 24h preincubation with gametocytes prior to induction of gametogenesis
[4] = PfDGFA at 2µM, 24h preincubation
[5] = 2µM, 24h preincubation with gametocytes prior to induction of gametogenesis
[6] = 2µM, 24h preincubation, hits selected on >50% inhibition in the male readout across replicates
[7] = 2µM, 24h preincubation, hits selected on >50% inhibition in the female readout across replicates
[8] = 2µM, 24h preincubation, number of replicates with >50% inhibition in the male readout
[9] = 2µM, 24h preincubation, number of replicates with >50% inhibition in the female readout
[10] = PfDGFA at 2µM, 24h preincubation with gametocytes
[11] = number of replicates with >50% inhibition in the male readout, 2µM
[12] = number of replicates with >50% inhibition in the female readout, 2µM

Compound | % inhibition male (individual replicates) R1 [1, 3] | % inhibition male (individual replicates) R4 [1, 3] | Average inhibition male (%) [1, 4] | % inhibition female (individual replicates) R1 [2, 3] | % inhibition female (individual replicates) R3 [2, 3] | % inhibition female (individual replicates) R4 [2, 3] | Average inhibition female (%) [2, 4] | Average inhibition male (%) [1, 5] | % inhibition male (individual replicates) R1 [1, 5] | % inhibition male (individual replicates) R3 [1, 5] | % inhibition male (individual replicates) R4 [1, 5] | HitlevelM [1, 6] | Activity [1, 4] | Average inhibition female (%) [2, 5] | % inhibition female (individual replicates) R1 [2, 5] | % inhibition female (individual replicates) R3 [2, 5] | % inhibition female (individual replicates) R4 [2, 5] | HitlevelF [2, 7] | also measured
COc1ccc(N(C)Cc2cnc3nc(N)nc(N)c3n2)cc1 [TCMDC-137682] | 16.6% | -18.5% | 5.0% | 1.5% | 1.9% | 1.8% | 3.6% | – | – | – | – | – | – | – | – | – | – | – | –
CCCc1cc(Cc2cnc(N)nc2N)cc(CCC)c1O.Cl [TCMDC-137695] | 13.3% | -24.5% | -1.8% | -0.04% | -0.32% | -11.2% | -4.4% | – | – | – | – | – | – | – | – | – | – | – | % inhibition male (individual replicates) R3 [1, 3]: -2.6%
Cc1cc(N2C(N)=NC(N)=NC2(C)C)ccc1Cl.Cl [TCMDC-137705] | – | – | – | – | – | – | – | -12.7% | 23.4% | -17.5% | -53.8% | 0 | 0 | 4.4% | 16.7% | -1.9% | -1.7% | 0 | –
Cc1ccc(N2C(N)=NC(N)=NC2(C)C)cc1Cl.Cl [TCMDC-137708] | – | – | – | – | – | – | – | -13.6% | 11.4% | -5.0% | -55.8% | 0 | 0 | 15.0% | 12.7% | 7.1% | 19.9% | 0 | –
CCCCCc1ccc(N2C(N)=NC(N)=NC2(C)C)cc1.Cl [TCMDC-137709] | – | – | – | – | – | – | – | 2.5% | 18.2% | 6.4% | -27.8% | 0 | 0 | 8.1% | 15.2% | -7.7% | 22.0% | 0 | –
CCCCCOc1ccc(N2C(N)=NC(N)=NC2(C)C)cc1.Cl [TCMDC-137711] | – | – | – | – | – | – | – | -17.3% | 6.1% | -21.6% | -48.5% | 0 | 0 | 10.0% | 16.6% | -26.0% | 23.4% | 0 | –
CC(C)(C)c1ccc(N2C(N)=NC(N)=NC2(C)C)cc1.Cl [TCMDC-137713] | – | – | – | – | – | – | – | -3.6% | 17.2% | 2.2% | -36.5% | – | – | 20.6% | 16.4% | 30.6% | 16.4% | – | HitlevelM [1, 8]: 0; HitlevelF [2, 9]: 0
CCc1ccc(N2C(N)=NC(N)=NC2(C)C)cc1.Cl [TCMDC-137714] | – | – | – | – | – | – | – | 9.1% | 34.5% | 9.3% | -34.5% | 0 | 0 | 7.9% | 15.9% | 0.5% | 12.9% | 0 | –
CCCC(C)c1ccc(N2C(N)=NC(N)=NC2(C)C)cc1.Cl (stereo not shown) [TCMDC-137715] | 8.4% | -43.6% | -6.3% | -4.9% | 0.05% | 1.4% | -2.9% | – | – | – | – | – | – | – | – | – | – | – | –
CN1CCN(CCNc2c3ccccc3nc3c2ccc2ccccc23)CC1.Cl [TCMDC-137723] | – | – | – | – | – | – | – | -12.0% | -27.6% | -0.85% | 0.03% | – | – | 18.4% | 9.6% | 26.6% | 23.3% | – | HitlevelM [1, 8]: 0; HitlevelF [2, 9]: 0
COc1ccc2nc(-c3ccccc3)cc(NCCCNc3cc(-c4ccccc4)nc4ccc(OC)cc34)c2c1.Cl [TCMDC-137734] | – | – | – | – | – | – | – | 9.4% | 15.3% | -6.1% | 18.2% | 0 | 0 | 5.7% | 14.1% | -18.5% | 23.4% | 0 | –
Cl.c1ccc2c(NCCCCCCCCCNc3ccnc4ccccc34)ccnc2c1 [TCMDC-137750] | – | – | – | – | – | – | – | 54.0% | 40.7% | 8.2% | 84.2% | – | – | 39.1% | 35.8% | 19.4% | 48.2% | – | HitlevelM [1, 8]: 2; HitlevelF [2, 9]: 1
COCCOc1nc(N)nc2ncc(Cc3cc(OC)ccc3OC)c(C)c12 [TCMDC-137754] | 18.4% | 26.2% | 25.9% | 1.5% | -13.9% | 2.0% | -4.6% | – | – | – | – | – | – | – | – | – | – | – | % inhibition male (individual replicates) R3 [1, 3]: 27.4%
OCc1ccc2nc3c(cc2c1)-c1cccc2cccc-3c12 [TCMDC-137756] | -3.7% | 12.3% | 6.9% | 4.5% | -23.9% | -12.7% | -11.0% | – | – | – | – | – | – | – | – | – | – | – | % inhibition male (individual replicates) R3 [1, 3]: 13.3%
COc1ccc(O)c(Cc2cnc3nc(N)[nH]c(=O)c3c2C)c1.CS(=O)(=O)O [TCMDC-137766] | 13.3% | -9.1% | 1.5% | 3.3% | -13.8% | -13.6% | -2.6% | – | – | – | – | – | – | – | – | – | – | – | % inhibition male (individual replicates) R3 [1, 3]: -7.3%
COc1ccccc1N1CCN(CCCCNC(=O)c2ccc(NC(=O)c3ccc(OC(F)(F)F)cc3)cc2)CC1.Cl [TCMDC-137780] | – | – | – | – | – | – | – | -3.4% | -7.9% | -14.4% | 10.6% | 0 | 0 | 5.4% | 10.5% | -10.0% | 19.1% | 0 | –
Cc1cc(N)nc2ccc(-c3ccc(CCN)cc3)cc12 [TCMDC-137786] | – | – | – | – | – | – | – | – | – | – | – | – | – | – | – | – | – | – | Average inhibition male (%) [1, 10]: 75.8%; % inhibition male (individual replicates) R1 [1, 10]: 70.7%; % inhibition male (individual replicates) R4 [1, 10]: 86.5%; HitlevelM [1, 11]: 3; Average inhibition female (%) [2, 10]: 37.0%; % inhibition female (individual replicates) R1 [2, 10]: 36.7%; % inhibition female (individual replicates) R3 [2, 10]: 37.4%; % inhibition female (individual replicates) R4 [2, 10]: 36.1%; HitlevelF [2, 12]: 0
CCOc1ccc2ccccc2c1CNCCCCCCNCc1c(OCC)ccc2ccccc12.CS(=O)(=O)O [TCMDC-137791] | – | – | – | – | – | – | – | – | – | – | – | – | – | – | – | – | – | – | Average inhibition male (%) [1, 10]: 87.1%; % inhibition male (individual replicates) R1 [1, 10]: 89.3%; % inhibition male (individual replicates) R3 [1, 10]: 68.9%; % inhibition male (individual replicates) R4 [1, 10]: 93.6%; HitlevelM [1, 11]: 4; Average inhibition female (%) [2, 10]: 47.4%; % inhibition female (individual replicates) R1 [2, 10]: 37.1%; % inhibition female (individual replicates) R3 [2, 10]: 17.2%; % inhibition female (individual replicates) R4 [2, 10]: 66.6%; HitlevelF [2, 12]: 2
